# Measured values as given in article PMC5610480, “Original Chemical Series of Pyrimidine Biosynthesis Inhibitors That Boost the Antiviral Interferon Response” (Antimicrobial Agents and Chemotherapy, 2017).
# Like-named read-outs stand apart in the source and are kept apart here.
# Columns and labels:
# MV-Luc [1] = test system: MV-Luc; set-up: method as in PMID 25558988; conditions: HEK-293T cells; previously reported ref 9; read-out: IC50, inhibition of MV-Luc; cited from earlier work
# in vitro = conditions: human
# MV-Luc [2] = experiment: microbe, parasite or virus in culture; type: cell-based, measles virus (MV); conditions: for IC50: Measles morbillivirus, HEK-293T, 24 h, read-out: IC50 (μM), inhibition of MV-Luc; for antiviral potency relative to DD363: MV-Luc IC50, fold higher than for DD363
# [3] = test system: ISRE-luciferase reporter gene; experiment: ISRE-luciferase induction in STING-37 reporter cells; conditions: STING-37 cells, 24 h, increasing doses
# [4] = test system: de novo pyrimidine biosynthesis; experiment: Intracellular nucleoside/nucleotide and UDP-sugar levels by HPLC; type: cell-based, human
# [5] = test system: CHIKV expressing Renilla luciferase; experiment: microbe, parasite or virus in culture; type: cell-based; conditions: Chikungunya virus, HEK-293T, 24 h, read-out: IC50, CHIKV Renilla luciferase
# RIG-I [6] = experiment: RT-qPCR gene expression in STING-37 cells: RIG-I; type: cell-based, human; conditions: 30 μM, 24 h, DMSO None = 1
# Description: (§1) To further document the consequences of DD778 treatment on the cellular response to ssRNA, mRNA levels for RIG-I, MDA5, oligoadenylate synthase-like protein (OASL), IFN-α4, IFN-β, IFN-λ1, and IFN-λ2/3 were determined by reverse transcription-quantitative PCR (RT-qPCR). […] Furthermore, the effects of DD778 on the expression of these genes could be reversed by the addition of uridine in culture medium. […] In parallel, we measured in culture supernatants the concentrations of IFN-β, IFN-λ1, IFN-λ2/3, and interferon-inducible protein of 10 kDa (IP-10), which is a well-characterized IFN-inducible chemokine (Fig. 7C). […] This illustrates an original mechanism by which cells can communicate with neighbors on their metabolic status.
# (§2) Upper images correspond to representative experiments.
# RIG-I [7] = experiment: Western blotting of RIG-I in STING-37 cells
# OASL = experiment: RT-qPCR gene expression in STING-37 cells: OASL; type: cell-based, human; conditions: 30 μM, 24 h, DMSO None = 1
# Description: as §1, §2
# IFN biological activity = IFN biological activity of culture supernatants on fresh STING-37 cells; conditions: no ssRNA, supernatants at 48 h
# MV-Luc [8] = experiment: Complementation of MV-Luc inhibition with uridine, DHO or orotate; conditions: 24 h
# MDA5 [9] = experiment: Western blotting of MDA5 in STING-37 cells
# IFN-λ2/3 = experiment: RT-qPCR gene expression in STING-37 cells: IFN-λ2/3; type: cell-based, human; conditions: 30 μM, 24 h, DMSO None = 1
# Description: as §1, §2
# MDA5 [10] = experiment: RT-qPCR gene expression in STING-37 cells: MDA5; type: cell-based, human; conditions: 30 μM, 24 h, DMSO None = 1
# Description: as §1, §2
# IFN-λ1 = experiment: RT-qPCR gene expression in STING-37 cells: IFN-λ1; type: cell-based, human; conditions: 30 μM, 24 h, DMSO None = 1
# Description: as §1, §2
# IFN-β = experiment: RT-qPCR gene expression in STING-37 cells: IFN-β; type: cell-based, human; conditions: 30 μM, 24 h, DMSO None = 1
# Description: as §1, §2
# IFN-α4 = experiment: RT-qPCR gene expression in STING-37 cells: IFN-α4; type: cell-based, human; conditions: 30 μM, 24 h, DMSO None = 1
# Description: as §1, §2
# [11] = test system: IFN-β, IFN-λ1, IFN-λ2/3, and IP-10; experiment: Cytokines in culture supernatants, LEGENDplex
# [12] = test system: ISRE-luciferase reporter gene; experiment: ISRE-luciferase response to MV infection in STING-37 cells; conditions: 30 μM added 9 h after infection, read 16 h later
# DHODH = test system: DHODH; set-up: method as in PMID 20183850; conditions: read-out: IC50 on the recombinant enzyme; cited from earlier work
# [13] = MV MOI 2, 30 μM added at 9 h, 39 h more
structure (smiles),measurement,setting,value
"C/C(O)=C(\C#N)C(=O)Nc1ccc(C(F)(F)F)cc1 [Teriflunomide, teriflunomide]",IC50,MV-Luc [1],5000 nM
O=c1oc2ccc(Cl)cc2c2c1C(c1c[nH]c3ccc(Br)cc13)C([N+](=O)[O-])O2 (centres unmarked) [DD783],CC50 at 24 h,in vitro,> 50 µM
same,IC50,MV-Luc [2],42 ± 7 µM
O=c1oc2ccccc2c2c1C(c1cccc(Cl)c1)C([N+](=O)[O-])O2 (centres unmarked) [DD311],CC50 at 24 h,in vitro,> 50 µM
same,IC50,MV-Luc [2],47 ± 4 µM
O=c1oc2ccc(F)cc2c2c1C(c1c[nH]c3ccccc13)C([N+](=O)[O-])O2 (centres unmarked) [DD776],CC50 at 24 h,in vitro,> 50 µM
same,antiviral potency relative to DD363,MV-Luc [2],2- to 9 fold
same,IC50,MV-Luc [2],3.8 ± 0.8 µM
O=c1oc2ccc(Br)cc2c2c1C(c1c[nH]c3ccccc13)C([N+](=O)[O-])O2 (centres unmarked) [JP52],CC50 at 24 h,in vitro,> 50 µM
same,antiviral potency relative to DD363,MV-Luc [2],2- to 9 fold
same,IC50,MV-Luc [2],1.2 ± 0.2 µM
O=c1oc2ccc(Cl)cc2c2c1C(c1c[nH]c3ccccc13)C([N+](=O)[O-])O2 (centres unmarked) [DD771],CC50 at 24 h,in vitro,> 50 µM
same,antiviral potency relative to DD363,MV-Luc [2],2- to 9 fold
same,IC50,MV-Luc [2],1.7 ± 0.4 µM
Cc1cc2c(c(=O)o1)C(c1c[nH]c3ccccc13)C([N+](=O)[O-])O2 (centres unmarked) [DD786],induction of the ISRE-luciferase gene (compound alone),[3],unable to do so
same,CC50 at 24 h,in vitro,> 50 µM
same,IC50,MV-Luc [2],> 50 µM
"Cc1c(-c2ccc(-c3ccccc3F)cc2)nc2ccc(F)cc2c1C(=O)O [Brequinar, brequinar, reference compound]",induction of the ISRE-luciferase gene (compound alone),[3],induced
same,inhibition of de novo pyrimidine biosynthesis,"[4]; submicromolar concentrations, 24 h",inhibited
same,IC50,MV-Luc [1],40 nM
Cc1[nH]c2ccccc2c1C1c2c(c3cc(Cl)ccc3oc2=O)OC1[N+](=O)[O-] (centres unmarked) [JP25],CC50 at 24 h,in vitro,> 50 µM
same,IC50,MV-Luc [2],47 ± 7 µM
Cc1ccc2oc(=O)c3c(c2c1)OC([N+](=O)[O-])C3c1c[nH]c2ccccc12 (centres unmarked) [DD778],IC50,[5],1400 ± 200 nM
same,RIG-I expression level (RT-qPCR),RIG-I [6]; ssRNA (60 ng/well),12±5
same,RIG-I expression level (RT-qPCR),RIG-I [6]; ssRNA (120 ng/well),57±9
same,RIG-I expression level (RT-qPCR),RIG-I [6]; ssRNA: None,1.3±0.4
same,"RIG-I protein expression, ssRNA-transfected cells","RIG-I [7]; 30 μM, 48 h",promoted the expression
same,"RIG-I protein expression, MV-infected cells",RIG-I [7]; [13],boosted
same,induction of the ISRE-luciferase gene (compound alone),[3],induced
same,CC50 at 24 h,in vitro,207 ± 20 µM
same,OASL expression level (RT-qPCR),OASL; ssRNA (60 ng/well),17±3
same,OASL expression level (RT-qPCR),OASL; ssRNA (120 ng/well),111±21
same,OASL expression level (RT-qPCR),OASL; ssRNA: None,3±2
same,intracellular UDP-Gal level,[4]; HEK-293T cells treated 24 h,collapsed
same,intracellular UDP-GalNac level,[4]; HEK-293T cells treated 24 h,maintained at high levels
same,purine levels (A and G),[4]; HEK-293T cells treated 24 h,unaffected
same,uridine (U) and cytidine (C) levels,[4]; HEK-293T cells treated 24 h,collapsed
same,IFN activity in supernatants of cells treated with compound alone,IFN biological activity,did not show any IFN activity
same,effect of DHO on viral replication in treated cells,"MV-Luc [8]; DD778 10 μM, DHO 3 mM",no effect
same,effect of uridine and orotate on viral replication in treated cells,"MV-Luc [8]; DD778 10 μM, uridine 130 μM, orotate 3 mM",restore viral replication
same,"MDA5 protein expression, ssRNA-transfected cells","MDA5 [9]; 30 μM, 48 h",promoted the expression
same,"effects on MDA5 protein expression, MV-infected cells",MDA5 [9]; [13],limited
same,IFN-λ2/3 expression level (RT-qPCR),IFN-λ2/3; ssRNA (60 ng/well),7±1
same,IFN-λ2/3 expression level (RT-qPCR),IFN-λ2/3; ssRNA (120 ng/well),55±12
same,IFN-λ2/3 expression level (RT-qPCR),IFN-λ2/3; ssRNA: None,1.4±0.7
same,MDA5 expression level (RT-qPCR),MDA5 [10]; ssRNA (60 ng/well),5±1
same,MDA5 expression level (RT-qPCR),MDA5 [10]; ssRNA (120 ng/well),23±2
same,MDA5 expression level (RT-qPCR),MDA5 [10]; ssRNA: None,1.1±0.1
same,IFN-λ1 expression level (RT-qPCR),IFN-λ1; ssRNA (60 ng/well),14±3
same,IFN-λ1 expression level (RT-qPCR),IFN-λ1; ssRNA (120 ng/well),130±10
same,IFN-λ1 expression level (RT-qPCR),IFN-λ1; ssRNA: None,1.9±0.6
same,antiviral potency relative to DD363,MV-Luc [2],2- to 9 fold
same,IC50,MV-Luc [2],2.9 ± 0.3 µM
same,IFN-β expression level (RT-qPCR),IFN-β; ssRNA (60 ng/well),4±3
same,IFN-β expression level (RT-qPCR),IFN-β; ssRNA (120 ng/well),17±5
same,IFN-β expression level (RT-qPCR),IFN-β; ssRNA: None,1.5±0.8
same,IFN-α4 expression level (RT-qPCR),IFN-α4; ssRNA (60 ng/well),1.3±0.7
same,IFN-α4 expression level (RT-qPCR),IFN-α4; ssRNA (120 ng/well),1.4±0.6
same,IFN-α4 expression level (RT-qPCR),IFN-α4; ssRNA: None,1.3±0.7
same,"expression of IFN-β, IFN-λ1, IFN-λ2/3, and IP-10 in supernatants, ssRNA-stimulated cells","[11]; 30 μM, 120 ng ssRNA, 48 h",increased the expression
same,"IFN-β expression in supernatants, MV-infected cells",[11]; [13],not statistically enhanced
same,"expression of IFN-λ1, IFN-λ2/3, and IP-10 in supernatants, MV-infected cells",[11]; [13],efficiently increased
same,cellular response to MV infection (ISRE-luciferase),[12],efficiently boosted
O=c1oc2ccc(Cl)cc2c2c1C(c1c[nH]c3ccccc13)CO2 (centres unmarked) [JP46],CC50 at 24 h,in vitro,50 ± 8 µM
same,decrease of antiviral potency relative to DD771,MV-Luc [2]; MV-Luc IC50,9 fold
same,IC50,MV-Luc [2],16 ± 4 µM
CCc1ccc2oc(=O)c3c(c2c1)OC([N+](=O)[O-])C3c1c[nH]c2ccccc12 (centres unmarked) [JP49],CC50 at 24 h,in vitro,> 50 µM
same,antiviral potency relative to DD363,MV-Luc [2],2- to 9 fold
same,IC50,MV-Luc [2],5.3 ± 1.1 µM
O=c1oc2ccccc2c2c1C(c1c[nH]c3ccccc13)CO2 (centres unmarked) [JP42],CC50 at 24 h,in vitro,> 50 µM
same,IC50,MV-Luc [2],16 ± 3 µM
Cn1c(=O)c2c(c3ccccc31)OC([N+](=O)[O-])C2c1c[nH]c2ccccc12 (centres unmarked) [DD787],CC50 at 24 h,in vitro,> 50 µM
same,IC50,MV-Luc [2],16 ± 3 µM
Cn1cc(C2c3c(c4cc(Cl)ccc4oc3=O)OC2[N+](=O)[O-])c2ccccc21 (centres unmarked) [JP10],CC50 at 24 h,in vitro,> 50 µM
same,IC50,MV-Luc [2],> 50 µM
Cc1ccc2oc(=O)c3c(c2c1)OC([N+](=O)[O-])C3c1c[nH]c2ccc(Br)cc12 (centres unmarked) [DD784],CC50 at 24 h,in vitro,> 50 µM
same,IC50,MV-Luc [2],40 ± 7 µM
Cc1cc2oc(=O)c3c(c2cc1C)OC([N+](=O)[O-])C3c1c[nH]c2ccccc12 (centres unmarked) [DD775],CC50 at 24 h,in vitro,> 50 µM
same,IC50,MV-Luc [2],1.7 ± 0.4 µM
"O=C1CCCc2occ(-c3cccc(Cl)c3)c21 [DD264, reference compound]",CC50 at 24 h,in vitro,> 80 µM
same,IC50,MV-Luc [2],15 ± 2 µM
"O=c1oc2ccccc2c(O)c1Cc1c(O)c2ccccc2oc1=O [Dicoumarol, dicoumarol, reference compound]",induction of the ISRE-luciferase gene (compound alone),[3],induced
same,antiviral effect when culture medium is supplemented with uridine,MV-Luc [8]; uridine 130 μM,fully reversed
same,IC50,MV-Luc [2],12 ± 0.3 µM
same,IC50,DHODH,6.6 µM
O=C1C(=O)c2ccccc2C2=C1C(c1c[nH]c3ccccc13)C([N+](=O)[O-])O2 (centres unmarked) [DD785],CC50 at 24 h,in vitro,> 50 µM
same,IC50,MV-Luc [2],> 50 µM
O=c1oc2ccccc2c(O)c1C(C[N+](=O)[O-])c1c[nH]c2ccccc12 (centres unmarked) [JP39],CC50,in vitro,> 50 µM
same,IC50,MV-Luc [2],> 50 µM
